The record followed here is paper PMC2800117, “The hemolytic and cytolytic activities of Serratia marcescens phospholipase A (PhlA) depend on lysophospholipid production by PhlA” (BMC Microbiology, 2009).

Each structure is given as a SMILES string.

The test deals with T1, Phospholipase A2 derived from bovine pancreas (PLA2) (Bos taurus, UniProt P00593).
T1 construct: gene PLA2G1B; commercial native enzyme from bovine pancreas (Sigma)
The experiment in a line: fluorescence enhancement (BODIPY FL release, […] nm). The test is classed as biochemical. As to conditions: 10 mM Tris-HCl pH 8.0, 100 mM NaCl, 10 mM CaCl2, 45 nM substrate, 6 min; labelled compound; enzyme used as control.

T1 sequence (P00593 23-145): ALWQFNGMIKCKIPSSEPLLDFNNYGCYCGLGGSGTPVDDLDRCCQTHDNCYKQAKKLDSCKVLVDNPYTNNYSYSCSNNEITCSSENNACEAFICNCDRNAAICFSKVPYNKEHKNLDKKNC

On to `CC1=CC(C)=[N+]2C1=Cc1ccc(CCCCCCCCCCC(=O)OC[C@H](COP(=O)([O-])OCC[N+](C)(C)C)OC(=O)CCCCCCCCCCc3ccc4n3[B-](F)(F)[N+]3=C(C)C=C(C)C3=C4)n1[B-]2(F)F` [bis-BODIPY FL C11-PC], for which the “fluorescence enhancement (BODIPY FL release, 485/530 nm)” value is “S. marcescens PhlA and bovine pancreatic PLA2 released fluorescent fatty acids from bis-BODIPY FLC11-PC”.
